According to PubChem BioAssay AID192 (DTP/NCI, 2004):
Where “and” joins values, the source holds several entries; their conditions need not be identical. Identical values can stand only once. Inconclusive results and toxic doses are left out. Square brackets hold non-standard residues; d marks the D form. Peptide text beside a SMILES is read from it. * marks the point of attachment. ξ: configuration not given here. Cbz = O=C(OCc1ccccc1)*; ξV = CC(C)C(N)C(=O)O; Sar = CNCC(=O)O

Tested on: BDF1 mice, B16 melanoma ip, median survival T/C
Assay: NCI In Vivo Anticancer Drug Screen. Data for tumor model B16 Melanoma (intraperitoneal) in B6D2F1 (BDF1) mice
Details: endpoint: median survival time, higher = longer survival
Summary of the method: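 The ratio T/C compares compound-treated mice with vehicle-treated controls, using survival or tumor size as the endpoint in a transplantable tumor model.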

[1] = dose: 25.0 mg/kg/injection, schedule: Q01DX009 (ip), vehicle: saline
[2] = dose: 50.0 mg/kg/injection, schedule: Q01DX009 (ip), vehicle: saline
[3] = dose: 6.25 mg/kg/injection, schedule: Q01DX009 (ip), vehicle: saline
[4] = dose: 6.25 mg/kg/injection, schedule: Q04DX003 (ip), vehicle: saline
[5] = dose: 12.5 mg/kg/injection, schedule: Q01DX009 (ip), vehicle: saline
[6] = dose: 25.0 mg/kg/injection, schedule: Q01DX009 (ip), vehicle: Klucel (hydroxypropylcellulose) (HPC)
[7] = dose: 50.0 mg/kg/injection, schedule: Q01DX009 (ip), vehicle: Klucel (hydroxypropylcellulose) (HPC)
[8] = dose: 3.12 mg/kg/injection, schedule: Q01DX009 (ip), vehicle: saline
[9] = dose: 100.0 mg/kg/injection, schedule: Q01DX009 (ip), vehicle: Klucel (hydroxypropylcellulose) (HPC)

CCNCCNC
T/C [1]: 109 % of control
T/C [2]: 98 % of control
T/C (dose: 100.0 mg/kg/injection, schedule: Q01DX009 (ip), vehicle: saline): 86 % of control

CCOC(=O)C(C#N)N=O (centres undefined)
T/C [2]: 111 % of control
T/C (dose: 50.0 mg/kg/injection, schedule: Q04DX003 (ip), vehicle: saline): 106 % of control
T/C (dose: 100.0 mg/kg/injection, schedule: Q04DX003 (ip), vehicle: saline): 113 % of control

C[N+]1(C)CCCC1
T/C [3]: 111 % of control
T/C [4]: 95 % of control
T/C [5]: 100 % of control
T/C (dose: 12.5 mg/kg/injection, schedule: Q04DX003 (ip), vehicle: saline): 95 % of control
T/C [1]: 91 % of control
T/C (dose: 25.0 mg/kg/injection, schedule: Q04DX003 (ip), vehicle: saline): 95 % of control

CC(C)C(NC(=O)CN(C)C(=O)OCc1ccccc1)C(=O)O (centres undefined) (Cbz-[Sar]-[ξV]-OH)
T/C [3]: 96 % of control
T/C [5]: 104 % of control
T/C [1]: 93 % of control
T/C [2]: 97 % of control and 101 % of control

Clc1sc2ccccc2c1Cl
T/C (dose: 6.25 mg/kg/injection, schedule: Q01DX009 (ip), vehicle: Klucel (hydroxypropylcellulose) (HPC)): 93 % of control
T/C (dose: 12.5 mg/kg/injection, schedule: Q01DX009 (ip), vehicle: Klucel (hydroxypropylcellulose) (HPC)): 92 % of control
T/C [6]: 91 % of control
T/C [7]: 90 % of control

ClCCCN1CCCCC1CCl (centres undefined)
T/C [8]: 111 % of control
T/C (dose: 3.12 mg/kg/injection, schedule: Q04DX003 (ip), vehicle: saline): 105 % of control
T/C [4]: 116 % of control
T/C (dose: 8.33 mg/kg/injection, schedule: Q01DX009 (ip), vehicle: water): 155 % of control and 159 % of control
T/C [5]: 176 % of control
T/C (dose: 12.5 mg/kg/injection, schedule: Q01DX009 (ip), vehicle: water): 185 % of control and 192 % of control

NNS(=O)(=O)c1ccc(OCC(=O)O)cc1
T/C [9]: 98 % of control
T/C (dose: 200.0 mg/kg/injection, schedule: Q01DX009 (ip), vehicle: Klucel (hydroxypropylcellulose) (HPC)): 97 % of control
T/C (dose: 400.0 mg/kg/injection, schedule: Q01DX009 (ip), vehicle: Klucel (hydroxypropylcellulose) (HPC)): 93 % of control

O=C(Nc1ccc(Cl)cc1)Nc1ccccc1F
T/C (dose: 100.0 mg/kg/injection, schedule: Q01DX009 (ip), vehicle: saline with Tween-80): 89 % of control
T/C (dose: 200.0 mg/kg/injection, schedule: Q01DX009 (ip), vehicle: saline with Tween-80): 86 % of control

NCC(O)c1ccc(O)c(O)c1 (centres undefined)
T/C (dose: 1.56 mg/kg/injection, schedule: Q01DX009 (ip), vehicle: saline): 97 % of control and 105 % of control
T/C [8]: 95 % of control and 107 % of control
T/C [3]: 100 % of control and 106 % of control
T/C [5]: 99 % of control and 102 % of control

CN1c2c(nc(N)[nH]c2=O)NCC1CCNc1ccc(C(=O)NC(CCC(=O)O)C(=O)O)cc1 (centres undefined)
T/C [6]: 106 % of control
T/C [7]: 103 % of control
T/C (dose: 50.0 mg/kg/injection, schedule: Q01DX009 (ip), vehicle: sodium bicarbonate): 100 % of control
T/C [9]: 106 % of control
T/C (dose: 100.0 mg/kg/injection, schedule: Q01DX009 (ip), vehicle: sodium bicarbonate): 100 % of control
T/C (dose: 200.0 mg/kg/injection, schedule: Q01DX009 (ip), vehicle: sodium bicarbonate): 95 % of control
T/C (dose: 400.0 mg/kg/injection, schedule: Q01DX009 (ip), vehicle: sodium bicarbonate): 118 % of control

C/C=C\C(C)=C/C(C)C(=O)CC(O)CC1CC(=O)NC(=O)C1 (centres undefined)
T/C (dose: 3.12 mg/kg/injection, schedule: Q01DX009 (ip), vehicle: DMSO): 95 % of control
T/C (dose: 6.25 mg/kg/injection, schedule: Q01DX009 (ip), vehicle: DMSO): 119 % of control
T/C (dose: 12.5 mg/kg/injection, schedule: Q01DX009 (ip), vehicle: DMSO): 103 % of control
T/C (dose: 25.0 mg/kg/injection, schedule: Q01DX009 (ip), vehicle: DMSO): 96 % of control

CCOC(=O)c1ccc(NS(C)(=O)=O)cc1
T/C (dose: 75.0 mg/kg/injection, schedule: Q01DX009 (ip), vehicle: Klucel (hydroxypropylcellulose) (HPC)): 94 % of control
T/C (dose: 150.0 mg/kg/injection, schedule: Q01DX009 (ip), vehicle: Klucel (hydroxypropylcellulose) (HPC)): 102 % of control
T/C (dose: 300.0 mg/kg/injection, schedule: Q01DX009 (ip), vehicle: Klucel (hydroxypropylcellulose) (HPC)): 108 % of control
